What was measured:
MCL1 = assay: Western blotting of MCL1 downregulation in Hep3B cells; type: cell-based, human; details: 24 hours, sorafenib at 10 uM
Method: A first series of experiments was conducted to determine whether specific targeting of MCL1 recapitulates sorafenib synergy with SQT-BH3 in cells in vitro.

[1] = tested on: Hep3B human hepatocellular carcinoma cells; assay: Cell death of Hep3B cells transfected with truncated BID (tBID) mmRNA constructs (CellTiterGlo); type: cell-based; details: CellTiterGlo (CTG) assay, varying doses
Text: One construct encoded a single copy of amino acids 61-195 of the BID protein that includes its BH3 domain (with a FLAG epitope tag). The open reading frame (ORF) amino acid sequence and corresponding nucleotide sequence encoding the ORF a.a. sequence are shown in SEQ ID NOs: 289 and 290, respectively. The sequence for the corresponding construct without the FLAG epitope tag is shown in SEQ ID NO: 291. A second construct encoded a single copy of amino acids 77-195 of the BID protein that includes its BH3 domain (with a FLAG epitope tag). The open reading frame (ORF) amino acid sequence and corresponding nucleotide sequence encoding the ORF a.a. sequence are shown in SEQ ID NOs: 292 and 293, respectively. The sequence for the corresponding construct without the FLAG epitope tag is shown in SEQ ID NO: 294. The open reading frame (ORF) amino acid sequence and corresponding nucleotide sequence encoding the ORF a.a. sequence of a third construct, containing amino acids 61-104 of the BID protein, are shown in SEQ ID NOs: 286 and 287, respectively. The sequence for the corresponding construct without the FLAG epitope tag is shown in SEQ ID NO: 288. […]
Hep3B cells/well were plated in 96 well plates and the cells were transfected with varying doses of the mmRNA constructs. Cell death was measured using the CellTiterGlo (CTG) assay. […]

| Molecule | MCL1 downregulation (Western blotting) (MCL1) | apoptosis of Hep3B cells [1] |
| --- | --- | --- |
| CNC(=O)c1cc(Oc2ccc(NC(=O)Nc3ccc(Cl)c(C(F)(F)F)c3)cc2)ccn1 [sorafenib] | downregulated MCL1 | – |
| tBID (77-195): mmRNA encoding a single copy of amino acids 77-195 of the BID protein with FLAG tag; SEQ ID NOs: 292 and 293 (nucleic acid, mmRNA, FLAG tag; Synthetic: hum.tBID(77-195).FLAG) DNA: ATGGAAAGTCAAGAAGACATCATCCGGAATATTGCCAGGCACCTCGCCCAGGTCGGGGACAGCATGGACCGTAGCATCCCTCCGGGCCTGGTGAACGGCCTGGCCCTGCAGCTCAGGAACACCAGCCGGTCGGAGGAGGACCGGAACAGGGACCTGGCCACTGCCCTGGAGCAGCTGCTGCAGGCCTACCCTAGAGACATGGAGAAGGAGAAGACCATGCTGGTGCTGGCCCTGCTGCTGGCCAAGAAGGTGGCCAGTCACACGCCGTCCTTGCTCCGTGATGTCTTTCACACAACAGTGAATTTTATTAACCAGAACCTACGCACCTACGTGAGGAGCTTAGCCAGAAATGGGATGGACATGGATTACAAGGACGATGATGACAAG | – | induced apoptosis of Hep3B cells |

From patent US20210206818A1, “MESSENGER RIBONUCLEIC ACIDS FOR THE PRODUCTION OF INTRACELLULAR BINDING POLYPEPTIDES AND METHODS OF USE THEREOF” (ModernaTX, Inc., priority 2016, published 2021)
